The values that follow come from ChEMBL document CHEMBL5370656, “Structure-Activity Relationship and Biological Investigation of a REV-ERBα-Selective Agonist SR-29065 (34) for Autoimmune Disorders” (J Med Chem, 2023).

Calls of active or inactive are those of the source. The calls are words filed in the database; no cut-off is given here.

Data set [1] has as its target T1, Nuclear receptor subfamily 1 group D member 1 (Homo sapiens, UniProt P20393).
T1 sequence (P20393 whole entry): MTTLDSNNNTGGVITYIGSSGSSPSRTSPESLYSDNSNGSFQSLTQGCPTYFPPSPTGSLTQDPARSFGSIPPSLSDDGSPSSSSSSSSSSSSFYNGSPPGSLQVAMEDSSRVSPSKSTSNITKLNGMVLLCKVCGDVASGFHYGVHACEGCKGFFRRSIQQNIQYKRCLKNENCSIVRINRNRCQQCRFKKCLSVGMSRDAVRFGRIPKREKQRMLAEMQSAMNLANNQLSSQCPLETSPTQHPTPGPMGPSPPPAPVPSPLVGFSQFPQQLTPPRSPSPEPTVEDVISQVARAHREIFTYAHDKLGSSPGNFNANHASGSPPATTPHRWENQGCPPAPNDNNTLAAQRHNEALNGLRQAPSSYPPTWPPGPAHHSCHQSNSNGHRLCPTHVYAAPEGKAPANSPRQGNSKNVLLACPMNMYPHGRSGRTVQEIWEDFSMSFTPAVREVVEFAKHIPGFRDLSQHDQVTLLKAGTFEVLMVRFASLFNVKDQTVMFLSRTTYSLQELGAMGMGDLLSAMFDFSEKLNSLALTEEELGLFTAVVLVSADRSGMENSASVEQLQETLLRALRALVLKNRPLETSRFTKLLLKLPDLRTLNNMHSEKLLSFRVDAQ
Put plainly: Agonist activity at his6-tagged human REV-ERBalpha LBD (281 to 614 residues) expressed in Escherichia coli assessed as increase in SMRT corepressor peptide […] by TR-FRET assay incubated for 2 hrs by TR-FRET assay.

A further data set concerns the target CYP3A4 (Homo sapiens, UniProt P08684). Put plainly: Inhibition of CYP3A4 (unknown origin) at 10 uM relative to control. The class given is ADME.
Data set [2] in a line: Metabolic stability in mouse liver microsome assessed as half life. As to conditions: liver microsomes. The class given is ADME.
A short description of data set [3]: Metabolic stability in human liver microsome assessed as half life. The class given is ADME. As to conditions: liver microsomes.
Data set [4] can be described thus: Cmax in mouse at 50 mg/kg, ip measured at 2 hrs. The class given is ADME, organism-based. Set-up: dose 50 mg/kg, time 2 hrs, route ip. As to conditions: in vivo.
A short description of data set [5]: Cmax in mouse at 50 mg/kg, ip measured for 12 hrs. The class given is ADME, organism-based. Also noted: time 12 hrs, dose 50 mg/kg, route ip. Particulars: in vivo.
Data set [6] addresses T1, Nuclear receptor subfamily 1 group D member 1. The experiment in a line: Agonist activity at REV-ERBalpha LBD in HEK293 cells co-transfected with pG5-UAS pCMV-Gal4 incubated for 18 hrs by multimode plate reader analysis. The class given is cell-based.
For data set [7], the target named is T2, Nuclear receptor subfamily 1 group D member 2 (Homo sapiens) (UniProt Q14995).
T2 sequence (whole entry): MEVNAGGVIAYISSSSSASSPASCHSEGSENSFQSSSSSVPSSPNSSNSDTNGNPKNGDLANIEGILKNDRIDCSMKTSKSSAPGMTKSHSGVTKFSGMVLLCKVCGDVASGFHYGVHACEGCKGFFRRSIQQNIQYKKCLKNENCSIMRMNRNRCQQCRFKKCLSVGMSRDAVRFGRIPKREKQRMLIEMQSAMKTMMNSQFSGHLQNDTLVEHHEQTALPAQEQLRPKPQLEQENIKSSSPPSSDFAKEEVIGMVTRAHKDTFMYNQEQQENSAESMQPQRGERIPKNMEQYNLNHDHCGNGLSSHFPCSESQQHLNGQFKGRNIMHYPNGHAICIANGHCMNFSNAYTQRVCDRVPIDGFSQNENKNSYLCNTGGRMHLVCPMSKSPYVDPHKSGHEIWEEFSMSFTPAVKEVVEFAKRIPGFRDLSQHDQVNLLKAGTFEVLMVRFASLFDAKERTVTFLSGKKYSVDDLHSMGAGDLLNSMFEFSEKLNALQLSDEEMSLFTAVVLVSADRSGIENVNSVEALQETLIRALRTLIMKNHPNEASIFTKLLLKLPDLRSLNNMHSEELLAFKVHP
Put plainly: Agonist activity at human REV-ERBbeta.

A further data set has as its target CYP2D6 (Homo sapiens, UniProt P10635). The experiment in a line: Inhibition of CYP2D6 (unknown origin) at 10 uM relative to control. The class given is ADME.
In another data set the target is T3, CYP1A2 (Homo sapiens, UniProt P05177).
T3 sequence (P05177 whole entry): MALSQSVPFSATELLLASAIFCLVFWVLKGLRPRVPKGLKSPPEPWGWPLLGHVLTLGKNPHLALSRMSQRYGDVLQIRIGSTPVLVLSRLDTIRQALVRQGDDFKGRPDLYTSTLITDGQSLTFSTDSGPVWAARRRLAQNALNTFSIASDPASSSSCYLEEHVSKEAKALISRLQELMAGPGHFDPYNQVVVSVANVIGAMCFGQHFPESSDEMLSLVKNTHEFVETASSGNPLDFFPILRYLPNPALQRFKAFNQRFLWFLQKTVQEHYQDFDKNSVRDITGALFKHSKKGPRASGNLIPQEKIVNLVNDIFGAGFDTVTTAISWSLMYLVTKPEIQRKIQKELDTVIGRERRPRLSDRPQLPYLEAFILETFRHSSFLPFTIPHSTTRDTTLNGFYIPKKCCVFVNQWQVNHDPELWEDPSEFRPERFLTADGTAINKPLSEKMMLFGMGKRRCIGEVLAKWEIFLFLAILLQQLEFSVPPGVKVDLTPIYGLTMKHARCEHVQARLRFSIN
Put plainly: Inhibition of CYP1A2 (unknown origin) at 10 uM relative to control. The class given is ADME.

In another data set the target is CYP2C9 (Homo sapiens, UniProt P11712). The experiment in a line: Inhibition of CYP2C9 (unknown origin) at 10 uM relative to control. The class given is ADME.
Sequence of CYP2C9 (P11712 whole entry): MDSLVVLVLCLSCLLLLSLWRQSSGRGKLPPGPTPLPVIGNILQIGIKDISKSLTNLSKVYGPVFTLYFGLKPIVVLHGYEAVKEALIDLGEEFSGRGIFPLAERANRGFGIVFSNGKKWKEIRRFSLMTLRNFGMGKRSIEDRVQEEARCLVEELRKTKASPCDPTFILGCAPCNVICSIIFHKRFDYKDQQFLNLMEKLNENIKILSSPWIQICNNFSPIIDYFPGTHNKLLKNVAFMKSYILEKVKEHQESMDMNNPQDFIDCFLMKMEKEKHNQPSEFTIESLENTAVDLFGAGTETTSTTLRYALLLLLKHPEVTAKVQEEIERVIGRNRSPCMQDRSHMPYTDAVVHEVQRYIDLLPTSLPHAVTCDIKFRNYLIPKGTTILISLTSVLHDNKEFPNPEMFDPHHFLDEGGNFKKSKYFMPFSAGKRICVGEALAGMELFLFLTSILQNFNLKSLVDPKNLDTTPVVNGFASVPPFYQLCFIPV
In data set [8] the test system is Mus musculus. The experiment in a line: Protection against experimental autoimmune encephalomyelitis C57BL/6 mouse model assessed as disease onset at 25 to 50 mg/kg, ip bid. The class given is functional, organism-based. As to conditions: dose 25-50 mg/kg.
The subject of data set [9] is Mus musculus. The experiment in a line: Protection against experimental autoimmune encephalomyelitis C57BL/6 mouse model assessed as reduction in disease severity at 25 to 50 mg/kg, ip bid. As to conditions: dose 25-50 mg/kg. The class given is functional, organism-based.
Data set [10] in a line: Toxicity in experimental autoimmune encephalomyelitis C57BL/6 mouse model assessed as animal weight loss at 25 to 50 mg/kg, ip bid. The class given is organism-based. As to conditions: in vivo, dose 25-50 mg/kg.
For data set [11], the system named is Mus musculus. The experiment in a line: Protection against experimental autoimmune encephalomyelitis C57BL/6 mouse model assessed as decrease in frequency of T cells at 25 to 50 mg/kg, ip bid by flow cytometry analysis. The class given is functional, organism-based. Particulars: T-cell, dose 25-50 mg/kg.
Data set [12] concerns Mus musculus. The experiment in a line: Protection against experimental autoimmune encephalomyelitis C57BL/6 mouse model assessed as decrease in number of T cells at 25 to 50 mg/kg, ip bid by flow cytometry analysis. The class given is functional, organism-based. Particulars: T-cell, dose 25-50 mg/kg.
Data set [13] relates to Mus musculus. The experiment in a line: In-vivo agonist activity at REV-ERBalpha in experimental autoimmune encephalomyelitis C57BL/6 mouse model assessed as reduction in bmal1 mRNA expression by RT-PCR analysis. The class given is functional.
Data set [14] relates to Mus musculus. Put plainly: In-vivo agonist activity at REV-ERBalpha in experimental autoimmune encephalomyelitis C57BL/6 mouse model assessed as reduction in clock mRNA expression by RT-PCR analysis. The class given is functional.
The test system of a further data set is Th17. Put plainly: Downregulation of IL-17A expression in human Th17 cells. The class given is functional, cell-based. Particulars: dose 1.25-10 µM.
A short description of data set [15]: Cytotoxicity against human Th17 cells assessed as reduction in cell viability at 1.25 to 10 uM. The class given is toxicity, cell-based. As to conditions: th17, 10 µM, dose 1.25-10 µM.

Sequence of CYP3A4 (P08684 whole entry): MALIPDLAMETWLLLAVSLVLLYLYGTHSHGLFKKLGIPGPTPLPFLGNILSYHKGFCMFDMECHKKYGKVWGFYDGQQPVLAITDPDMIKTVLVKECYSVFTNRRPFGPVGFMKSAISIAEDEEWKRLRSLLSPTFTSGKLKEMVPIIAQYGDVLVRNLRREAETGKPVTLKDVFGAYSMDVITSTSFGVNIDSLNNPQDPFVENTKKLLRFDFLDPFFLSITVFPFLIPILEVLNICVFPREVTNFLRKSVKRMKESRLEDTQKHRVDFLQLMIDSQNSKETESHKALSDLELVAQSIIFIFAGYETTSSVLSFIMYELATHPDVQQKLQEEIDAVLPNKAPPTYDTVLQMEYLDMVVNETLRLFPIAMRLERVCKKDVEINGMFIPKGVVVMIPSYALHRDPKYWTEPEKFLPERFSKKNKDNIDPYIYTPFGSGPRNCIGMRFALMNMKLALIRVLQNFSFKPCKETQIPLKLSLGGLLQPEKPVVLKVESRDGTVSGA
Sequence of CYP2D6 (P10635 whole entry): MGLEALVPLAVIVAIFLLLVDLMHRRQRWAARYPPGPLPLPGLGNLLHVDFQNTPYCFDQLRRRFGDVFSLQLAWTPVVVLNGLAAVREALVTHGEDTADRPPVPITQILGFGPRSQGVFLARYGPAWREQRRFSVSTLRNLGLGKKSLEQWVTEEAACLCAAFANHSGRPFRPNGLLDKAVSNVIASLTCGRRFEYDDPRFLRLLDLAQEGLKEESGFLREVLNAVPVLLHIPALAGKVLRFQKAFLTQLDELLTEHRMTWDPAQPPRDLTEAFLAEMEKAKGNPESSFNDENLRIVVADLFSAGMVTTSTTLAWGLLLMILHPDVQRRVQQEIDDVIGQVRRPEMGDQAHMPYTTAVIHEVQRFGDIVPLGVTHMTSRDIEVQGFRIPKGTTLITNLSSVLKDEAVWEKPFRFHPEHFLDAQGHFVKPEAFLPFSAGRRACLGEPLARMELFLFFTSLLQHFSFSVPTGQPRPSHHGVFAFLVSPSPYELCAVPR

Consider `CC(C)Cn1cc(CCNS(=O)(=O)N(C)C)c2ccc(-c3ccccn3)cc21`, for which the EC50 in data set [1] is 1000 nM. At CYP3A4, this compound yielded an inhibition at 10 µM of 96%.
Consider `CC(C)Cn1cc(CCNS(=O)(=O)C2CC2)c2ccc(-c3ccccc3C(F)(F)F)cc21`, for which the results for the half-life in [2] and in [3] were 3 min and 4 min, respectively.
For `CC(C)Cn1cc(C(C)(C)NS(=O)(=O)C2CC2)c2ccc(-c3ccccc3C(F)(F)F)cc21`, the values for the half-life in [2] and in data set [3] were 3 min and 80 min, respectively.
On to `CC(C)Cn1cc(CCNS(=O)(=O)N(C)C)c2ccc(-c3ccccc3)cc21`, for which the inhibition at 10 µM against CYP3A4 is 22%.
Regarding `CC(C)Cn1cc(CCNS(=O)(=O)N(C)C)c2ccc(-c3cccnc3)cc21`, the 50% effective concentration (EC50) in data set [1] came out at 160 nM. In addition, the inhibition at 10 µM on CYP3A4 was 96%.
With `CC(C)Cn1cc(CCNS(=O)(=O)N(C)C)c2ccccc21`, the EC50 in data set [1] turned out to be 990 nM.
For `CC(C)Cn1cc(C(NS(=O)(=O)C2CC2)C(F)(F)F)c2ccc(-c3ccccc3C(F)(F)F)cc21` (stereo not given), the results for the EC50 in data set [1] and in [6] were 110 nM and 500 nM, respectively. Besides, the half-life in data set [2] worked out at 32 min; in data set [3] it was 76 min. For the same compound, the inhibition at 10 µM at CYP3A4, on CYP2D6, at CYP1A2 and against CYP2C9 was less than 30% in each case. Also, the Cmax in [4] was 12.2 µM; in data set [5] it was approximately 0.8 µM. For the same compound, the outcome in [7] was inactive. Also, the outcome with Mus musculus [8], in the data set with Mus musculus [9], in the data set on Mus musculus [11], in the data set with Mus musculus [12], with Mus musculus [13] and in the data set with Mus musculus [14] was Active. Moreover, the result in the data set on Th17 was Active. Besides, the Activity result in data set [10] and in data set [15] was “Non-Toxic” throughout.
With `CC(C)Cn1cc(CNS(=O)(=O)C2CC2)c2ccc(-c3ccccc3C(F)(F)F)cc21`, the half-life in data set [2] and in data set [3] was 5 min in each case.
With `CC(C)Cn1cc(CCNS(=O)(=O)N(C)C)c2ccc(-c3cncnc3)cc21`, in data set [1], the EC50 is 2900 nM.
As to `CC(C)Cn1cc(CCNS(=O)(=O)C2CC2)c2ccc(-c3ccncc3)cc21`, the EC50 in [1] is 25 nM.
As for `CC(C)Cn1cc(C(C)NS(=O)(=O)C2CC2)c2ccc(-c3ccccc3C(F)(F)F)cc21` (stereo not given), the half-maximal effective concentration (EC50) in data set [1] came out at 7 nM. The half-life in [2] worked out at 10 min; in [3], 9 min.
Take `CC(C)Cn1cc(CCNS(=O)(=O)N(C)C)c2ccc(-c3ccc(F)cc3)cc21`: in data set [1], the 50% effective concentration (EC50) is 790 nM.
Turning to `CC(C)Cn1cc(CCNS(=O)(=O)N(C)C)c2ccc(-c3cnn(C)c3)cc21`, the concentration for a half-maximal effect (EC50) in [1] was more than 5000 nM.
Same read-out and setting: the result for `CC(C)Cn1cc(CCNS(=O)(=O)N(C)C)c2ccc(-c3cccc(C#N)c3)cc21` reads 370 nM.
